# Laboratory results as given in patent US20060100431A1, “Biologically active compounds” (Amura Therapeutics Limited, priority 2002, published 2006).
# Columns and labels:
# Assay type in all cases: biochemical
# [1] = target: T1, human cathepsin B (Homo sapiens, UniProt P07858); experiment: Cathepsin B peptidase activity assay (Ki); details: read-out: Ki, inhibitors of cathepsin B
# T1 construct: purchased CN Biosciences
# Protocol: Unless otherwise stated, all general chemicals and biochemicals were purchased from either the Sigma Chemical Company, Poole, Dorset, U.K or from Fisher Scientific UK, Loughborough, Leicestershire, U.K. Absorbance assays were carried out in flat-bottomed 96-well plates (Spectra; Greiner Bio-One Ltd., Stonehouse, Gloucestershire, U.K.) using a SpectraMax PLUS384 plate reader (Molecular Devices, Crawley, U.K.). […] Fluorescence assays were monitored using a SpectraMax Gemini fluorescence plate reader (Molecular Devices). For substrates employing either a 7-amino-4-methylcoumarin (AMC) or a 7-amino-4-trifluoromethylcoumarin (AFC) fluorophore, assays were monitored at an excitation wavelength of 365 nm and an emission wavelength of 450 nm and the fluorescence plate reader calibrated with AMC. For substrates employing a 3-amino-benzoyl (Abz) fluorophore, assays were monitored at an excitation wavelength of 310 nm and an emission wavelength of 445 nm; the fluorescence plate reader calibrated with 3-amino-benzamide (Fluka). Unless otherwise indicated, all the peptidase substrates were purchased from Bachem UK, St Helens, Merseyside, UK. […] Hydroxyethylpiperazine ethanesulfonate (HEPES), tris-hydroxylmethyl aminomethane (tris) base, bis-tris-propane and all the biological detergents (e.g. CHAPS, zwittergents, etc.) were purchased from CN Biosciences UK, Beeston, Nottinghamshire, U.K. Glycerol was purchased from Amersham Pharmacia Biotech, Little Chalfont, Buckinghamshire, U.K. Stock solutions of substrate or inhibitor were made up to 10 mM in 100% dimethylsulfoxide (DMSO) (Rathburns, Glasgow, U.K.) and diluted as appropriately required. In all cases the DMSO concentration in the assays was maintained at less than 1% (vol./vol.).
# Enzyme was added as required to initiate the reaction and the activity, as judged by the change in fluorescence upon conversion of substrate to product, was monitored over time. All assays were carried out at 25±1° C.
# Bovine cathepsin S, human cathepsin L, human cathepsin H and human cathepsin B were obtained from CN Biosciences. Recombinant human cathepsin S, human cathepsin K and human cathepsin X were obtained from Dr. Boris Turk (Josef Stefan Institute, Ljubljana, Slovenia). Unless otherwise stated, all peptidase activity assays were carried out in 10 mM bis-tris-propane (BTP), pH 6.5 containing 1 mM EDTA, 5 mM 2-mercaptoethanol and 1 mM CaCl2.
# The apparent inhibition constant (Ki) for each compound was determined on the basis that inhibition was reversible and occurred by a pure-competitive mechanism. […] [formula]
# [formula] Ki^app=Ki(1+[So]/KM^app) (4)
# Curves were fitted by non-linear regression analysis (Prism) using a fixed value for the enzyme concentration.
# [2] = target: Wild-type cruzipain (Trypanosoma cruzi, UniProt P25779); experiment: Trypanosoma cruzi cruzipain peptidase activity assay (Ki); details: read-out: Ki, inhibitors of cruzain and cruzipains
# Chain of Wild-type cruzipain (P25779 whole entry): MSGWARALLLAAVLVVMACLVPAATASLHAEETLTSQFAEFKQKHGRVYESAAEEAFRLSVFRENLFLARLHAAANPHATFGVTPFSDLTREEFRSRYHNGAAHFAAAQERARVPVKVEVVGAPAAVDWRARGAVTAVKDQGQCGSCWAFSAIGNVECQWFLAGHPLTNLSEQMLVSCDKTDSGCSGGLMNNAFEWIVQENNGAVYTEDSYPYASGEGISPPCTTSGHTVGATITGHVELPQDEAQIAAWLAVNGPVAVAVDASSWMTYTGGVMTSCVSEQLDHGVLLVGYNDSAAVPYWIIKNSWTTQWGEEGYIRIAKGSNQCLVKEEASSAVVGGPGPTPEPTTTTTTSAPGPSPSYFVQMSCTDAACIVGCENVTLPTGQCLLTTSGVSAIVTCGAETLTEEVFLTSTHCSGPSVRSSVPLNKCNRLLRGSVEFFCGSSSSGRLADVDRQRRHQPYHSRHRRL
# Method in brief: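 Native cruzipain from T. cruzi Dm28 epimastigotes, 2.5 nM, in 100 mM sodium phosphate pH 6.75 with 1 mM EDTA and 10 mM L-cysteine, 25 °C, DMSO <1%. Rates taken from continuous fluorogenic substrate read; Ki by regression assuming reversible pure-competitive inhibition.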
# [3] = target: T2, CPB2.8ΔCTE (Leishmania mexicana, UniProt P36400); experiment: Leishmania mexicana cysteine protease B (CPB) peptidase activity assay (Ki); details: Ki, inhibitors of Leismania mexicana CPB protease
# T2 construct: Wild-type recombinant CPB without the C-terminal extention (i.e. CPB2.8ΔCTE); Dr. Jeremy Mottram (Wellcome Centre for Molecular Parasitology, University of Glasgow)
# T2 sequence (P36400 126-343, stated change not applied): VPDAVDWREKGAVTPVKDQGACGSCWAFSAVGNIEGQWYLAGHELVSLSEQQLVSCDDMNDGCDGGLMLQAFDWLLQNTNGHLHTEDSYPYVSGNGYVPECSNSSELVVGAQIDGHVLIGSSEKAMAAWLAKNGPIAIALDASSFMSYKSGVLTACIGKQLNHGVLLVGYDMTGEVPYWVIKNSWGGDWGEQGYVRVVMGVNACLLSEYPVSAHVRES
# Method in brief: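 Apparent Ki was derived by regression of activity against inhibitor concentration, assuming pure-competitive reversible binding. Reaction: 0.25 nM CPB lacking the C-terminal extension, pH 5.5 acetate buffer (1 mM EDTA, 200 mM NaCl, 10 mM DTT), 25 °C, followed by continuous substrate fluorescence.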
# [4] = target: T3, human cathepsin L (Homo sapiens, UniProt P07711); experiment: Cathepsin L peptidase activity assay (Ki); details: read-out: Ki, inhibitors of cathepsin L
# T3 construct: purchased CN Biosciences
# T3 sequence (P07711 114-333): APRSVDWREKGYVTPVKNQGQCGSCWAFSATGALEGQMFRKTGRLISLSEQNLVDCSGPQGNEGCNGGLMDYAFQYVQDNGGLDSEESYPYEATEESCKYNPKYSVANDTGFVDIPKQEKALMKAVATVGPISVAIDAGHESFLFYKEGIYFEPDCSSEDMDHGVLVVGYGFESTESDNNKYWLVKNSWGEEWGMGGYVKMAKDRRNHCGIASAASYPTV
# Protocol: Unless otherwise stated, all general chemicals and biochemicals were purchased from either the Sigma Chemical Company, Poole, Dorset, U.K or from Fisher Scientific UK, Loughborough, Leicestershire, U.K. Absorbance assays were carried out in flat-bottomed 96-well plates (Spectra; Greiner Bio-One Ltd., Stonehouse, Gloucestershire, U.K.) using a SpectraMax PLUS384 plate reader (Molecular Devices, Crawley, U.K.). Fluorescence high throughput assays were carried out in either 384-well microtitre plates (Corning Costar 3705 plates, Fisher Scientific) or 96-well ‘U’ bottomed Microfluor W1 microtitre plates (Thermo Labsystems, Ashford, Middlesex, U.K.). Fluorescence assays were monitored using a SpectraMax Gemini fluorescence plate reader (Molecular Devices). For substrates employing either a 7-amino-4-methylcoumarin (AMC) or a 7-amino-4-trifluoromethylcoumarin (AFC) fluorophore, assays were monitored at an excitation wavelength of 365 nm and an emission wavelength of 450 nm and the fluorescence plate reader calibrated with AMC. For substrates employing a 3-amino-benzoyl (Abz) fluorophore, assays were monitored at an excitation wavelength of 310 nm and an emission wavelength of 445 nm; the fluorescence plate reader calibrated with 3-amino-benzamide (Fluka). Unless otherwise indicated, all the peptidase substrates were purchased from Bachem UK, St Helens, Merseyside, UK. Substrates utilizing fluorescence resonance energy transfer methodology (i.e. FRET-based substrates) were synthesized at Incenta Limited using published methods (Atherton & Sheppard, Solid Phase Peptide Synthesis, IRL Press, Oxford, U.K, 1989) and employed Abz (2-aminobenzoyl) as the fluorescence donor and 3-nitro-tyrosine [Tyr(NO2)] as the fluorescence quencher (Meldal, M. and Breddam, K., Anal. Biochem, 195, 141-147, 1991). Hydroxyethylpiperazine ethanesulfonate (HEPES), tris-hydroxylmethyl aminomethane (tris) base, bis-tris-propane and all the biological detergents (e.g. CHAPS, zwittergents, etc.) were purchased from CN Biosciences UK, Beeston, Nottinghamshire, U.K. Glycerol was purchased from Amersham Pharmacia Biotech, Little Chalfont, Buckinghamshire, U.K. Stock solutions of substrate or inhibitor were made up to 10 mM in 100% dimethylsulfoxide (DMSO) (Rathburns, Glasgow, U.K.) and diluted as appropriately required. In all cases the DMSO concentration in the assays was maintained at less than 1% (vol./vol.).
# Assay protocols were based on literature precedent (Table 4; Barrett, A. J., Rawlings, N. D. and Woessner, J. F., 1998, Handbook of Proteolytic Enzymes, Academic Press, London and references therein) and modified as required to suit local assay protocols. Enzyme was added as required to initiate the reaction and the activity, as judged by the change in fluorescence upon conversion of substrate to product, was monitored over time. All assays were carried out at 25±1° C.
# Bovine cathepsin S, human cathepsin L, human cathepsin H and human cathepsin B were obtained from CN Biosciences. Recombinant human cathepsin S, human cathepsin K and human cathepsin X were obtained from Dr. Boris Turk (Josef Stefan Institute, Ljubljana, Slovenia). Unless otherwise stated, all peptidase activity assays were carried out in 10 mM bis-tris-propane (BTP), pH 6.5 containing 1 mM EDTA, 5 mM 2-mercaptoethanol and 1 mM CaCl2. Human cathepsin H activity assays were carried out in 10 mM BTP pH 6.5, 142 mM NaCl2, 1 mM CaCl2, 1 mM EDTA, 1 mM DTT, 0.035 mM Zwittergent 3-16. Human cathepsin K assays were carried out in 100 mM sodium acetate; pH 5.5 containing 20 mM L-cysteine and 1 mM EDTA (Bossard, M. J., et. al., J. Biol. Chem., 21, 12517-12524, 1996). Human cathepsin X assays were carried out in 100 mM sodium acetate; pH 5.5 containing 20 mM L-cysteine; 0.05% (w/v) Brij 35 and 1 mM EDTA (Santamaria, I., et. al., J. Biol. Chem., 273, 16816-16823, 1998; Klemencic, J, et al., Eur. J. Biochem., 267, 5404-5412, 2000). […]
SMILES,Ki [1],Ki [2],Ki [3],Ki [4]
"CC(C)C[C@H](NC(=O)c1ccc(Oc2ccccc2)cc1)C(=O)N1CC[C@@H]2[C@H]1C(=O)CN2C(=O)c1ccccc1S(C)(=O)=O [Example 40, (3aR,6aS)-N-{(1S)-1-[4-(2-Methanesulfonyl-benzoyl)-6-oxo-hexahydro-pyrrolo[3,2-b]pyrrole-1-carbonyl]-3-methyl-butyl}-4-phenoxy-benzamide]",< 5 µM,–,–,–
"CC(C)C[C@H](NC(=O)c1ccc(Oc2ccccc2)cc1)C(=O)N1CC[C@@H]2[C@H]1C(=O)CN2C(=O)c1cccc(S(C)(=O)=O)c1 [Example 41, (3aR,6aS)-N-{(1S)-1-[4-(3-Methanesulfonyl-benzoyl)-6-oxo-hexahydro-pyrrolo[3,2-b]pyrrole-1-carbonyl]-3-methyl-butyl}-4-phenoxy-benzamide]",< 5 µM,–,–,–
"CC[C@H](NC(C)=O)C(=O)N1CC(=O)[C@@H]2[C@H]1CCN2C(=O)[C@H](CC(C)C)NC(=O)c1ccc(N(C)C)cc1 [Example 204, (3aR,6aS)-N-{(1S)-1-[4-((2S)-2-Acetylamino-butyryl)-6-oxo-hexahydro-pyrrolo[3,2-b]pyrrole-1-carbonyl]-3-methyl-butyl}-4-dimethylamino-benzamide]",–,< 5 µM,< 5 µM,< 5 µM
"CC(=O)N1CCC[C@H]1C(=O)N1CC(=O)[C@@H]2[C@H]1CCN2C(=O)[C@H](CC(C)C)NC(=O)c1ccc(N(C)C)cc1 [Example 216, (3aR,6aS)-N-{(1S)-1-[4-((2S)-1-Acetyl-pyrrolidine-2-carbonyl)-6-oxo-hexahydro-pyrrolo[3,2-b]pyrrole-1-carbonyl]-3-methyl-butyl}-4-dimethylamino-benzamide]",–,< 5 µM,< 5 µM,< 5 µM
"CC(C)C[C@H](NC(=O)c1cccc(CN)c1)C(=O)N1CC[C@@H]2[C@H]1C(=O)CN2C(=O)[C@@H](N)CC(C)C [Example 246, (3aR,6aS)-3-Aminomethyl-N-{(1S)-1-[4-((2S)-2-amino-4-methyl-pentanoyl)-6-oxo-hexahydro-pyrrolo[3,2-b]pyrrole-1-carbonyl)-3-methyl-butyl}-benzamide]",–,< 5 µM,< 5 µM,< 5 µM
"O=C(N[C@@H](CSCc1ccccc1)C(=O)N1CC[C@@H]2[C@H]1C(=O)CN2C(=O)c1ccccc1)c1cc2ccccc2s1 [Example 252, (3aR,6aS)-Benzo[b]thiophene-2-carboxylic acid [(1R)-2-(4-benzoyl-6-oxo-hexahydro-pyrrolo[3,2-b]pyrrol-1-yl)-1-benzylsulfanylmethyl-2-oxo-ethyl]-amide]",< 5 µM,–,–,–
"O=C(N[C@@H](CSCc1ccccc1)C(=O)N1CC[C@@H]2[C@H]1C(=O)CN2C(=O)c1ccccc1)c1csc2ccccc12 [Example 253, (3aR,6aS)-Benzo[b]thiophene-3-carboxylic acid [(1R)-2-(4-benzoyl-6-oxo-hexahydro-pyrrolo[3,2-b]pyrrole-1-yl)-1-benzylsulfanylmethyl-2-oxo-ethyl]-amide]",< 5 µM,–,–,–
"O=C(N[C@@H](CSCc1ccccc1)C(=O)N1CC[C@@H]2[C@H]1C(=O)CN2C(=O)c1cccc([N+](=O)[O-])c1)c1ccsc1 [Example 264, (3aR,6aS)-Thiophene-3-carboxylic acid {(1R)-1-benzylsulfanylmethyl-2-[4-(3-nitro-benzoyl)-6-oxo-hexahydro-pyrrolo[3,2-b]pyrrole-1-yl]-2-oxo-ethyl}-amide]",< 5 µM,–,–,–
"CC(=O)N[C@@H](CC(C)C)C(=O)N1CC(=O)[C@@H]2[C@H]1CCN2C(=O)[C@H](CC1CCCCC1)NC(=O)c1ccco1 [Example 295, (3aR,6aS)-Furan-2-carboxylic acid {(1S)-2-[4-((2S)-2-acetylamino-4-methyl-pentanoyl)-6-oxo-hexahydro-pyrrolo[3,2-b]pyrrole-1-yl]-1-cyclohexylmethyl-2-oxo-ethyl}-amide]",–,< 5 µM,< 5 µM,< 5 µM
